According to ChEMBL document CHEMBL1144953, “Anti-androgens with full antagonistic activity toward human prostate tumor LNCaP cells with mutated androgen receptor” (Bioorg Med Chem Lett, 2003):

Molecular target: T1, Androgen receptor (Homo sapiens, UniProt P10275)
T1 sequence (P10275 whole entry): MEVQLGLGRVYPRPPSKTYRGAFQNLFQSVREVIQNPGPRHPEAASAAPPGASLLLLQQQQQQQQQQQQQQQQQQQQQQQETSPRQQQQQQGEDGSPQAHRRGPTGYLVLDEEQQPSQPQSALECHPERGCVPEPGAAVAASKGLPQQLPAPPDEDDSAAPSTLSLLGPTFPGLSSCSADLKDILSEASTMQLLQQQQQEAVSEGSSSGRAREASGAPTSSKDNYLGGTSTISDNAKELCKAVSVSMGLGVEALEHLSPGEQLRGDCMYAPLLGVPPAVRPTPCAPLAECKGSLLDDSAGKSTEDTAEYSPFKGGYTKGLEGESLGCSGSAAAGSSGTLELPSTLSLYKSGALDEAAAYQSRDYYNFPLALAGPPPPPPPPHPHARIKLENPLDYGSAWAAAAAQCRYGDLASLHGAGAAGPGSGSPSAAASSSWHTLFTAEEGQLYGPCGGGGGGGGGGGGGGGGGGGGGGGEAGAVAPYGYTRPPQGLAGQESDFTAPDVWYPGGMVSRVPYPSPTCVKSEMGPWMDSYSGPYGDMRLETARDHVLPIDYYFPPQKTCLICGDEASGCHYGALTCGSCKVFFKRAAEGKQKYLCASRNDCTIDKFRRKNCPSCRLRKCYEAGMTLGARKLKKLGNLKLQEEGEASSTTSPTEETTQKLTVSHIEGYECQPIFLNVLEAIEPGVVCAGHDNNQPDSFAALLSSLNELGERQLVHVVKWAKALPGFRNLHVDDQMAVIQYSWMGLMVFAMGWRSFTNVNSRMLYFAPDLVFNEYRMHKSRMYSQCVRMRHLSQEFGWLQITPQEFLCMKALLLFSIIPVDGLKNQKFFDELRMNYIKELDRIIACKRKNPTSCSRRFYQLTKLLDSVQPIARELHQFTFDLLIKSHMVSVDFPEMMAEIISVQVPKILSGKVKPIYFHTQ
Assay: Dissociation constant against GST-hARLBD was measured in SC-3 cell by using [3H]testosterone as radioligand
Assay type: cell-based

SMILES	Kd [nM]
CCCCN(CCCC)c1ccc(/C=C2\C(=O)ON=C2c2ccccc2)cc1	1.4
O=C1ON=C(c2ccc(O)cc2)/C1=C/c1ccc(N2CCCC2)cc1	1.4
O=C1ON=C(c2ccc(F)cc2)/C1=C/c1ccc(N2CCCC2)cc1	1.4
O=C1ON=C(c2ccccc2F)/C1=C/c1ccc(N2CCCC2)cc1	1.4
